# From ChEMBL document CHEMBL1201862, “PubChem BioAssay data set” (2004)
# Activity calls are given as the source filed them.
# Tested on: not listed separately
# Assay: Trypanosoma cruzi growth suppression in host cells – NIH3T3 host cells, beta-gal luminescence, confirmation (AID 2044);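 note: intracellular parasites grown in NIH/3T3 mouse fibroblasts as host cells; luminescent beta-galactosidase reporter signal from transgenic T. cruzi replicating inside host cells; inhibitors lower the luminescence signal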
# Format: functional, cell-based
# Conditions: not given
row,SMILES,EC50
1,Cc1cccc(NS(=O)(=O)c2cc(C(=O)N3CCc4ccccc4C3)ccc2Cl)c1C,2.18 µM (active)
2,CN(C)CCCN(C(=O)c1cccs1)c1nc2cc3c(cc2s1)OCO3,0.163 µM (active)
3,CCn1c(N=C(S)Nc2ccccc2)nc2ccccc21,0.53 µM (active)
4,Oc1ccc(N2CCN(Cc3ccc(OCCCN4CCCCC4)cc3)CC2)cc1,0.114 µM (active)
5,COC(=O)c1ccc(-c2sc3nc(N4CCOCC4)c4c(c3c2N)CCCC4)o1,2.63 µM (active)
6,COc1ccccc1CCNC1CCC(C(C)(C)C)CC1 (stereo unspecified),1.37 µM (active)
7,O=C(c1ccco1)N(CCCN1CCOCC1)c1nc(-c2ccc(Cl)cc2)cs1,1.8 µM (active)
8,Cc1n[nH]c(-c2ccc(OCc3cnn(-c4ccccc4)c3)cc2O)c1Oc1ccc(Cl)cc1,2.43 µM (active)
9,COC(=O)C1Cc2c([nH]c3ccccc23)C2(CCN(Cc3ccccc3)CC2)N1 (stereo unspecified),1.6 µM (active)
10,COc1cccc(CNc2ccc3c(c2)CCC3)c1,7.93 µM (active)
11,O=[N+]([O-])c1nn(-c2ccc3c(c2)OCCO3)[n+]([O-])c1NCCCO,0.75 µM (active)
12,Cc1cc(C)c(S(=O)(=O)c2ccccc2Cl)c(Cl)n1,2.32 µM (active)
13,Cc1ccc2nc(-c3ccncc3)cc(C(=O)NCCc3ccc(F)cc3)c2c1,1.7 µM (active)
14,Cc1ccc(Nc2c([N+](=O)[O-])nn(-c3ccc(Cl)cc3)[n+]2[O-])cc1C,0.747 µM (active)
15,CN(C)c1oc(-c2ccc(OCc3ccc(Cl)cc3)cc2)nc1C#N,8.31 µM (active)
16,O=C(N/N=C/c1ccc([N+](=O)[O-])o1)C1CCCC1,0.429 µM (active)
17,C/C(=N\NC(=O)c1cc(-c2cccc(OC(C)C)c2)nc2ccccc12)c1cccnc1,0.611 µM (active)

# Tested on: not listed separately
# Assay: viability of uninfected HEp-2 cells – cell-based, HTS, cytotoxicity control for RSV inhibitor project, dose response (AID 2410)
# Format: functional
# Conditions: human respiratory syncytial virus
row,SMILES,CC50
1,Cc1nc(N2CCOCC2)nc(N2CCCCC2C)c1[N+](=O)[O-] (stereo unspecified),21.9 µM (active)
2,CSc1ccccc1OCc1cc(C(=O)N(C)C2CCCc3ccccc32)no1 (stereo unspecified),20.4 µM (active)
3,CCc1noc(C)c1C(=O)Nc1ccc(S(=O)(=O)N2CCC(C)CC2)cc1,32.9 µM (active)
4,COc1ccc2nc(Nc3ccccc3)sc2c1,33.6 µM (active)
5,CN1c2ccccc2Oc2nnc(Cl)cc21,43.3 µM (active)
6,COc1ccc(C(=O)/C=C/c2ccc(F)cc2)c(OC(=O)c2ccc([N+](=O)[O-])cc2)c1,20.5 µM (active)
7,COc1ccccc1/C=C/[C@@H]1C[C@H]2CN(Cc3cccc(Cl)c3)C(=O)[C@]23CCCN13,38.4 µM (active)
8,CCCCc1c(O)nc2ccc(C)cc2c1C,26.6 µM (active)
9,O=C1NC(=O)/C(=C/c2cccc([N+](=O)[O-])c2)N1,31.2 µM (active)
10,Cc1ccc(-c2ccc(/C=N\NC(=O)C3C(=O)NCC3c3ccccc3)o2)cc1Cl (stereo unspecified),13 µM (active)

# Target: Cytochrome P450 2C19 (Homo sapiens, UniProt P33261)
# Sequence (P33261 whole entry): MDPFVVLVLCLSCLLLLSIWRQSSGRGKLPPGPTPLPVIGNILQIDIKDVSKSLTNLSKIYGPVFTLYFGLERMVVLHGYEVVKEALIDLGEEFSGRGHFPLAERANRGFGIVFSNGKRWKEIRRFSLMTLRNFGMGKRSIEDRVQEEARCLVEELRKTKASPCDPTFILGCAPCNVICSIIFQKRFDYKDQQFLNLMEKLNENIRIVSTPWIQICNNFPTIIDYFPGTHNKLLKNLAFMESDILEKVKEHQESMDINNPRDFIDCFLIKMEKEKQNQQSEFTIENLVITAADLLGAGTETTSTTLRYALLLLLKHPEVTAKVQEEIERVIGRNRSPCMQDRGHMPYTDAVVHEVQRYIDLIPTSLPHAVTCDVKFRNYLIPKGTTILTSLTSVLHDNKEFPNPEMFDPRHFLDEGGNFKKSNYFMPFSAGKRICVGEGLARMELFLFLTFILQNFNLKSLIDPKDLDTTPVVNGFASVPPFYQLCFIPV
# Assay: Cytochrome panel assay with activity outcomes. Panel member name: p450-cyp2c19 Compounds with AC50 equal or less than 10 uM are considered active
# Format: functional
# Conditions: not given
row,AC50,SMILES
1,inconclusive,C[C@@]12C=CC(=O)C=C1CC[C@@H]1[C@@H]2[C@H](O)C[C@]2(C)[C@@H]1CC[C@]2(O)C(=O)CO
2,inconclusive,N#C[C@@H](/N=N\c1ccccc1C(=O)O)C(N)=O
3,inconclusive,O=C(O)[C@H](Cc1c[nH]c2ccccc12)N1C(=O)c2ccccc2C1=O

# Same assay, conditions: read-out: AC50
row,AC50,SMILES
1,39.8 µM (inconclusive),COC(=O)[C@@]1(Cc2ccc(OC)cc2)[C@H]2c3cc(C(=O)N4CCCC4)n(Cc4ccccn4)c3C[C@H]2CN1C(=O)c1ccccc1
2,10 µM (inconclusive),Cc1ccccc1OCCCN1CCCC1
3,28.2 µM (inconclusive),Cc1ccc(NC(=O)CCC(=O)NNC(=O)c2cccs2)c(C)c1
4,39.8 µM (inconclusive),O=C(O)CCC(=O)CCC(=O)c1ccccc1
5,22.4 µM (inconclusive),CCOC(=O)N1CCN(C(=O)c2ccc(NC(C)=O)cc2)CC1
6,20 µM (inconclusive),O=C(NCc1ccccc1Cl)c1cnccn1

# Tested on: not listed separately
# Assay: NIH3T3 cell viability loss – ATP luminescence, mouse fibroblasts, counter-screen, dose response (AID 2010);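 note: cells exposed to compound for about 90 hours before reading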
# Format: functional, cell-based
# Conditions: not given
row,SMILES,EC50
1,Cc1cccc(NS(=O)(=O)c2cc(C(=O)N3CCc4ccccc4C3)ccc2Cl)c1C,> 60 µM (not active)
2,CN(C)CCCN(C(=O)c1cccs1)c1nc2cc3c(cc2s1)OCO3,> 60 µM (inconclusive)
3,CCn1c(N=C(S)Nc2ccccc2)nc2ccccc21,> 60 µM (inconclusive)
4,Oc1ccc(N2CCN(Cc3ccc(OCCCN4CCCCC4)cc3)CC2)cc1,> 30 µM (not active)
5,COC(=O)c1ccc(-c2sc3nc(N4CCOCC4)c4c(c3c2N)CCCC4)o1,13.2 µM (active)
6,COc1ccccc1CCNC1CCC(C(C)(C)C)CC1 (stereo unspecified),> 60 µM (not active)
7,O=C(c1ccco1)N(CCCN1CCOCC1)c1nc(-c2ccc(Cl)cc2)cs1,> 60 µM (not active)
8,Cc1n[nH]c(-c2ccc(OCc3cnn(-c4ccccc4)c3)cc2O)c1Oc1ccc(Cl)cc1,> 60 µM (not active)
9,COC(=O)C1Cc2c([nH]c3ccccc23)C2(CCN(Cc3ccccc3)CC2)N1 (stereo unspecified),10.1 µM (active)
10,COc1cccc(CNc2ccc3c(c2)CCC3)c1,> 60 µM (not active)
11,O=[N+]([O-])c1nn(-c2ccc3c(c2)OCCO3)[n+]([O-])c1NCCCO,> 60 µM (not active)
12,Cc1cc(C)c(S(=O)(=O)c2ccccc2Cl)c(Cl)n1,> 60 µM (not active)
13,Cc1ccc2nc(-c3ccncc3)cc(C(=O)NCCc3ccc(F)cc3)c2c1,> 60 µM (not active)
14,Cc1ccc(Nc2c([N+](=O)[O-])nn(-c3ccc(Cl)cc3)[n+]2[O-])cc1C,> 60 µM (not active)
15,CN(C)c1oc(-c2ccc(OCc3ccc(Cl)cc3)cc2)nc1C#N,> 60 µM (not active)
16,O=C(N/N=C/c1ccc([N+](=O)[O-])o1)C1CCCC1,> 60 µM (not active)
17,C/C(=N\NC(=O)c1cc(-c2cccc(OC(C)C)c2)nc2ccccc12)c1cccnc1,> 30 µM (not active)

# Target: T1, Cytochrome P450 1A2 (Homo sapiens, UniProt P05177);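 note: PubChem cytochrome P450 panel assay, CYP1A2 panel member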
# T1 sequence (P05177 whole entry): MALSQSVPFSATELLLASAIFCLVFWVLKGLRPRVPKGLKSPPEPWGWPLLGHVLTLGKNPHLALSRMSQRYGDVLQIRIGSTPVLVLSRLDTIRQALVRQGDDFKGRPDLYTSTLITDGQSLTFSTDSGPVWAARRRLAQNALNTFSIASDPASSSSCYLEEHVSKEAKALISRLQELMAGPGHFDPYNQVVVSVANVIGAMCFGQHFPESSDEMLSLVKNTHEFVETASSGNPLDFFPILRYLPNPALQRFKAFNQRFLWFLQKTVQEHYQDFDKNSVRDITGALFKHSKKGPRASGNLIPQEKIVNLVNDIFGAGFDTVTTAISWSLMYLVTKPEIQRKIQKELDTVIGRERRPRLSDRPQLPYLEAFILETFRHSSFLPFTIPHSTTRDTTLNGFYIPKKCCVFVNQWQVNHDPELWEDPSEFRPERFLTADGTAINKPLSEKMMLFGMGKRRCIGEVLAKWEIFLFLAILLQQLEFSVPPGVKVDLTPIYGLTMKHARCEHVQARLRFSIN
# Conditions: not given
row,AC50,SMILES
1,12.6 µM (inconclusive),Cc1nn(Cc2c(F)c(F)c(F)c(F)c2F)c(C)c1NC(=O)c1cccc(COc2ccc(Cl)cc2)c1
2,39.8 µM (inconclusive),COc1nc(OCCNC(C)=O)nc(N(C)C)n1
3,14.1 µM (inconclusive),COc1ccc(CC(=O)NCc2ccccn2)cc1OC
4,12.6 µM (inconclusive),O=c1c(CCc2ccccc2)nc2cncnc2n1Cc1ccccc1Cl
5,28.2 µM (inconclusive),O=C(NCc1ccccc1Cl)c1cnccn1
6,1 µM (inconclusive),O=C1Nc2ccc(S(=O)(=O)O)cc2/C1=N/Nc1ccccc1[N+](=O)[O-]

row,SMILES,AC50
1,CC(C)=NNc1ncnc2[nH]cnc12,0.794 µM (inconclusive)
2,NNC(N)=O [HYDRAZINECARBOXAMIDE],39.8 µM (inconclusive)

# Target: T2, Rac GTPase-activating protein 1 (Homo sapiens, UniProt Q9H0H5)
# T2 sequence (Q9H0H5 whole entry): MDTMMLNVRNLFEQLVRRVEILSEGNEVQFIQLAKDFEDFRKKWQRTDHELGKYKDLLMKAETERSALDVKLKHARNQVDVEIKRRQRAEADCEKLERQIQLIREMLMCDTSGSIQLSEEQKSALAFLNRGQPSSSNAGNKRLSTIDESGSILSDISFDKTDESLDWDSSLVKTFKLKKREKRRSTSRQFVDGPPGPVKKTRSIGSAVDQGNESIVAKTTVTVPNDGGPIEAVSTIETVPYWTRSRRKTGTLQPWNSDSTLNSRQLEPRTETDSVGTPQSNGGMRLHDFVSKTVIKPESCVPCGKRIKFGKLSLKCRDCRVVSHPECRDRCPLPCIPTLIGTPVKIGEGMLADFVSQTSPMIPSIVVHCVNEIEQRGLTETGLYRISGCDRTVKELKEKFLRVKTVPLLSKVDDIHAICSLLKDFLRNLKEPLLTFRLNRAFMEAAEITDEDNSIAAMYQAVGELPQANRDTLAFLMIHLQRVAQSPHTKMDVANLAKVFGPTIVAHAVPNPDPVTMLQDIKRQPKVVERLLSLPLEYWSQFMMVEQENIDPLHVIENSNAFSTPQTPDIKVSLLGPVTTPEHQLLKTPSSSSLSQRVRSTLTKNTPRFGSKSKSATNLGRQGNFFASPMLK
# Assay: blockers of MgcRacGAP-driven Rac1 GTP hydrolysis – biochemical, ADP Hunter fluorescence, primary and confirmatory, confirmation (AID 624330)
# Format: functional
# Conditions: not given
row,IC50,SMILES
1,172 µM (active),CCCCN(C)C(=O)C1CCN(Cc2cccc(OCc3ccccc3)c2)CC1
2,46.6 µM (active),O=c1c2c([N+](=O)[O-])cc([N+](=O)[O-])cc2[s+]([O-])n1Cc1ccccc1 (stereo unspecified)
3,83.2 µM (active),Cc1ccc(CNc2ncc(-c3ccccc3)n2C)o1
4,15.5 µM (active),Oc1ccc(Nc2ncnc3ccccc23)cc1
5,110 µM (active),COc1cc(CN2CCC(C(=O)N3CCN(c4ccccc4F)CC3)CC2)ccc1O
6,41.4 µM (active),Nc1nc2c(s1)CCc1ccccc1-2
7,46.4 µM (active),Nc1ccc(N2CCCCC2)c(Cl)c1
8,61.8 µM (active),CCCCNc1[nH]c(=S)nc2cc(OC)c(OC)cc12
9,115 µM (active),COc1ccc([C@H]2CN(c3ccc(OC)cc3)C(=O)[C@@H]2CC(=O)Nc2ccccc2)cc1
10,79.5 µM (active),N#Cc1c(O)nsc1Nc1ccccc1
11,45.3 µM (active),Oc1ccc(/C=N/Nc2cc(N3CCOCC3)nc(N3CCOCC3)n2)cc1
12,123 µM (active),C/C(=N\c1ccc(O)cc1)c1sc2ccccc2c1O
13,59.6 µM (active),CCOc1cc(/C=N/NC(=O)c2ccc(=O)n(C)c2)ccc1O

row,SMILES,IC50
1,Cc1cccc(OCC(=O)N2CCN(Cc3ccncc3)CC2)c1,82.9 µM (active)
2,O=C(Cc1ccccc1)N1CCN(Cc2ccc(F)cc2)CC1,130 µM (active)
